Measurements as given in patent publication US20220348590A1, “CYCLOOXYGENASE-2 INHIBITORS AND USES THEREOF” (The Board Institute, Inc., priority 2019, published 2022).
pIC50: −log10 of the molar value. Read-outs that look alike come from different tables or passages of the source.

Biological target: T1, human recombinant COX2 (hCOX2) (UniProt P35354)
T1 sequence (P35354 1-604): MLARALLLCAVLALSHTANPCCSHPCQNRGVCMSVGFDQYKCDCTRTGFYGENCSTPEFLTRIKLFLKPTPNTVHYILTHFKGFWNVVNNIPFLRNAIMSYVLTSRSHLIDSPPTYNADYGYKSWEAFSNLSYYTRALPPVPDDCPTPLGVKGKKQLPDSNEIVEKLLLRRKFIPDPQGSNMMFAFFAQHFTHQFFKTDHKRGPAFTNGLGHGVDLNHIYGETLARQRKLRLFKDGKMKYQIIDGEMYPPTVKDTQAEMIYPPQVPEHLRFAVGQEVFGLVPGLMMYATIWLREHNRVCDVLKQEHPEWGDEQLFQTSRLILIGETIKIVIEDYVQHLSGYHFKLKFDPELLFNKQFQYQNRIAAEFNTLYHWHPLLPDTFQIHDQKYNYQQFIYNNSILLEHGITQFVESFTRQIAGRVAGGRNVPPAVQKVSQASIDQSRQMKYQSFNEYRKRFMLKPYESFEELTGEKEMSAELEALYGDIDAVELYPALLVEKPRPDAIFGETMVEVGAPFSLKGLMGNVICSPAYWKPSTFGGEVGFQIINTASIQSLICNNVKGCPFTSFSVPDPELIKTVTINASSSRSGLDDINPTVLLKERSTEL
Experiment: LCMS-based COX2 enzymatic inhibition assay (PGE2 quantification)
Type: biochemical
Parameters: COX2 2 minutes pge2/pge2d4 area ratio Avg; other: 2 minutes; readout pge2/pge2d4 area ratio; average; COX2 2 minutes pge2/pge2d4 area ratio Avg; LLE; average LLE; COX2 2 minutes pge2 area (counts) Avg; readout pge2 area (counts); other: 2 min; "ovine COX2 (oCOX2), human recombinant COX2 (hCOX2)"
Settings: for pIC50: average; for COX2 2 minutes pge2/pge2d4 area ratio Avg. LLE / COX2 2 minutes pge2 area (counts) Avg. LLE / COX2 10 minutes pge2 area (counts) Avg. LLE: average LLE
Protocol: We have adapted a previously reported cyclooxygenase enzymatic assay utilizing LCMS quantification of PGE2 as the product of COX-1 and COX2 catalyzed conversion of arachidonic acid to evaluate the binding properties of newly synthesized ligands [Cao, 2011]. These optimized and miniaturized (384-well plates) LCMS-based COX-1 and COX2 enzymatic assays enabled us to quickly evaluate newly synthesized ligands for COX2 binding affinity and selectivity vs COX-1. Using a shorter ligand-enzyme incubation time in the LCMS assay (2 minutes vs 10 minutes) also permitted us to prioritize ligands with faster binding kinetics. Considering the relatively slow on-rate kinetics of known coxibs, due to their 3-step binding mechanism [Marnett, 2009], we believe that optimizing this critical parameter will be key to the successful development of a COX2 PET tracer. Using these enzymatic assays, we have evaluated>200 newly synthesized ligands against COX2 and >20 ligands against COX-1. Another critical property necessary for a good PET radiotracer is to have low non-specific binding (NSB) to increase the free fraction and maximize the signal to noise ratio. This property can be evaluated using in-vitro protein binding assays, and we have now evaluated>50 newly synthesized ligands in mouse, rat and human plasma protein binding (PPB) assays as well as >15 ligands in a mouse brain protein binding (BPB) assay.
Ovine COX-1 (oCOX-1), ovine COX2 (oCOX2), human recombinant COX2 (hCOX2), arachidonic acid, PGE2, d4-PGD2, and […] (labeled with deuterium atoms at positions 3 and 4) were purchased from Cayman Chemicals (Ann Arbor, Mich.). The cofactors (−)epinephrine and hematin, and the COX inhibitors indomethacin, resveratrol and diclofenac were purchased from Sigma-Aldrich (St. Louis, Mo.). Celecoxib was purchased from 3B PharmaChem International (Wuhan, China). All organic solvents were HPLC grade or better and were purchased from Thermo Fisher (Hanover Park, Ill.). Formic acid was purchased from EMD Chemicals (San Diego, Calif.). Purified water was prepared by using a Millipore Milli-Q purification system (Millipore, Billerica, Mass.). All other chemicals and solvents were ACS reagent grade, unless stated otherwise.
In an Eppendorf tube, 146 μL of 100 mM Tris.HCl (pH 8.0) buffer, 2 μL of 100 μM hematin (co-factor) and 10 μL of 40 mM L-epinephrine (co-factor) were mixed at room temperature. Next, 20 μL of Tris.HCl (pH 8.0) buffer containing 0.2 μg COX2 or 0.1 μg COX-1 (approximately 1 unit of enzyme; 1 unit COX utilizes 1 nmol 02/mg/min at 37° C.) was added, and the solution was incubated at room temperature for 2 min. A 2 μL aliquot of the COX inhibitor in DMSO was added to the enzyme solution and preincubated at 37° C. for 10 min. Negative controls were identical except that 2 μL aliquots of DMSO without inhibitor were used instead.
Each COX reaction was initiated by adding 20 μL of arachidonic acid in Tris.HCl (pH 8.0) buffer to give a final concentration of 5 μM; and the reaction was terminated after 2 min by adding 20 μL of 2.0 M HCl. The surrogate standards d4-PGE2 and d4-PGD2 (10 μL aliquot of 50 ng/mL solution in methanol) were added to correct for errors or degradation during sample handling and for variation in injection volume or instrument response during LC-MS-MS. After 30 min, PGE2, PGD2 and their surrogate standards were extracted from each incubation mixture using 800 μL hexane/ethyl acetate (50:50, v/v). The organic phase was removed, evaporated to dryness, and reconstituted in 100 μL methanol/water (50:50, v/v) for analysis using LC-MS-MS.
The concentration of PGE2 in each sample was measured using LC-MS-MS, and the percent of COX inhibition by each test solution was determined by comparing the amount of PGE2 produced in the experiment with that produced in the negative control incubation. The formation of PGD2 was measured for quality control purposes, since the levels of PGD2 should be proportional to those of PGE2. […]

[1] = read-out: COX2 2 minutes pge2/pge2d4 area ratio Avg. IC50 (microM), 2 minutes, readout pge2/pge2d4 area ratio
[2] = 2 minutes, readout pge2/pge2d4 area ratio
[3] = 2 minutes, readout pge2/pge2d4 area ratio, read-out: COX2 2 minutes pge2/pge2d4 area ratio Avg. IC50
[4] = 2 minutes, readout pge2 area (counts)
[5] = 2 minutes, readout pge2 area (counts), read-out: COX2 2 minutes pge2 area (counts) Avg. IC50
[6] = 10 minutes, readout pge2 area (counts)
[7] = 10 minutes, readout pge2 area (counts), read-out: COX2 10 minutes pge2 area (counts) Avg. IC50

Structure (SMILES) | pIC50 [1] | COX2 2 minutes pge2/pge2d4 area ratio Avg. LLE [2] | pIC50 [3] | COX2 2 minutes pge2 area (counts) Avg. LLE [4] | pIC50 [5] | COX2 10 minutes pge2 area (counts) Avg. LLE [6] | pIC50 [7]
CS(=O)(=O)c1ccc(-c2cc(OCc3cccs3)ccn2)cc1 [Compound 315] | 5.28 |  |  |  |  |  | 
CN(Cc1ccco1)c1cccc(-c2ccc(S(C)(=O)=O)cc2)n1 [Compound 200] |  | 2.819 | 6.00 | 2.726 | 5.86 |  | 
CS(=O)(=O)c1ccc(-c2cccc(NCc3ncco3)n2)cc1 [Compound 231] |  | 3.1763 | 5.62 | 3.075 | 5.56 |  | 
COc1ncc(NCc2ncco2)nc1-c1ccc(S(C)(=O)=O)cc1 [Compound 236] |  | 4.092 | 5.59 | 4.092 | 5.60 |  | 
COCc1ccc(-c2ccc(S(C)(=O)=O)cc2)nc1NCc1cccs1 [Compound 189] |  | 2.767 | 6.18 | 2.661 | 6.08 |  | 
CS(=O)(=O)c1ccc(-c2cccc(OCc3ccc(F)cc3)n2)cc1 [Compound 95] |  | 3.43 | 7.15 | 3.477 | 7.04 |  | 
CS(=O)(=O)c1ccc(-c2cncc(OCc3ccsc3)n2)cc1 [Compound 134] |  | 4.3725 | 6.74 | 4.235 | 6.62 |  | 
C[C@@H](Nc1cccc(-c2ccc(S(C)(=O)=O)cc2)n1)c1ccco1 (single isomer, unassigned) [Compound 274] | 5.28 | 1.914 |  | 1.914 |  |  | 
CS(=O)(=O)c1ccc(-c2cncc(NC34CC5CC(CC(C5)C3)C4)n2)cc1 [Compound 240] |  | 2.7806 | 5.55 | 2.394 |  | 2.9969 | 5.88
COc1cnc(-c2ccc(S(C)(=O)=O)cc2)nc1OCc1cccs1 [Compound 123] |  | 3.569 | 6.88 | 3.5904 | 6.92 |  | 
CS(=O)(=O)c1ccc(-c2cccc(NCc3ccn[nH]3)n2)cc1 [Compound 264] |  | 2.63 | 5.34 | 2.705 | 5.38 |  | 
CS(=O)(=O)c1ccc(-n2nnc3ccc(NCc4cccs4)nc32)cc1 [Compound 139] |  |  | 6.68 |  | 6.66 |  | 
COc1cc(S(C)(=O)=O)ccc1-c1cccc(NCc2ccoc2)n1 [Compound 297] | 5.28 |  |  |  |  |  | 
CSc1ccc(-c2cccc(NCc3ccoc3)n2)cc1 [Compound 295] | 5.28 |  |  |  |  |  | 
CS(=O)(=O)c1ccc(-c2cccc(NC(=O)c3cccs3)n2)cc1 [Compound 302] | 5.28 |  |  |  |  |  | 
Cn1ccc(CNc2cccc(-c3ccc(S(C)(=O)=O)cc3)n2)c1 [Compound 108] |  | 3.847 | 7.02 | 3.926 | 7.10 |  | 
CS(=O)(=O)c1ccc(-c2cnc3cnn(Cc4cccs4)c3c2)cc1 [Compound 244] |  | 1.703 | 5.50 |  |  |  | 
CS(=O)(=O)c1ccc(-c2cncc(NCc3ccc(F)nc3)n2)cc1 [Compound 208] |  | 4.4967 | 5.87 | 4.501 | 5.88 | 5.151 | 6.45
CS(=O)(=O)c1ccc(-c2cncc(NC[C@H]3CCCS3)n2)cc1 (single isomer, unassigned) [Compound 162] |  | 4.811 | 6.40 | 4.888 | 6.46 |  | 
C[C@H](Nc1cncc(-c2ccc(S(C)(=O)=O)cc2)n1)c1cccs1 [Compound 109] |  | 4.384 | 7.01 | 4.487 | 7.10 | 5.297 | 7.88
CS(=O)(=O)c1ccc(-c2cncc(N3CCc4ccccc4C3)n2)cc1 [Compound 324] | 5.28 |  |  |  |  |  | 
CC(C)(C)OC(=O)N(c1ccoc1)c1cccc(-c2ccc(S(C)(=O)=O)cc2)n1 [Compound 296] | 5.28 |  |  |  |  |  | 
CS(=O)(=O)c1ccc(-c2nc(NCc3cccs3)ccc2S(C)(=O)=O)cc1 [Compound 265] |  | 2.641 | 5.32 | 2.624 |  |  | 
CS(=O)(=O)c1ccc(-c2cnc(C(F)(F)F)c(NCc3cccs3)n2)cc1 [Compound 144] |  | 3.605 | 6.63 | 3.637 | 6.64 |  | 
CS(=O)(=O)c1ccc(-c2cncc(SCc3ncco3)n2)cc1 [Compound 217] |  | 3.66 | 5.81 | 3.522 | 5.65 |  | 
CS(=O)(=O)c1ccc(-c2cncc(SCc3cnoc3)n2)cc1 [Compound 213] |  | 4.567 | 5.83 | 4.663 | 5.88 |  | 
COCc1ccc(NCc2cccs2)nc1-c1ccc(S(C)(=O)=O)cc1 [Compound 100] |  | 3.645 | 7.08 | 3.594 | 6.97 |  | 
CS(=O)(=O)c1ccc(-c2cnnc(NCc3cccs3)n2)cc1 [Compound 114] |  | 5.0904 | 6.98 | 5.034 | 6.88 |  | 
